Reference: US9422335B2, “Modified toll-like receptor 2 (TLR2) ligands as inhibitors of neutrophil recruitment” (priority 2011, dated 2016)
Entries after “also recorded” stand apart in the source; their conditions may differ.

Tests used:
[1] = severe sepsis; decreased from about 31%; cited from earlier work
[2] = system: neutrophil emigration into the cremaster tissue; assay: Intravital microscopy of cremaster muscle after intrascrotal injection; assay type: in vivo, mice; settings: for effect of antagonist pretreatment on LTA and GML inhibition of TNFα-induced neutrophil recruitment: 0.5 μg, 1.5 hr pre-treatment; for inhibitory properties toward LPS-induced neutrophil emigration: LPS 10 ng/g plus ligand 5 ng/g, 4.5 hours; for neutrophil recruitment induced by the ligand itself: wild-type mice, intrascrotal injection, 4.5 hr
Experimental: Intravital microscopy was performed on male mice, anaesthetized with an intraperitoneal injection of a 10 mg/kg xylazine (Bayer) and 200 mg/kg ketamine hydrochloride (Rogar/STB). The left jugular vein was cannulated to administer additional anaesthetic when necessary. An incision in the scrotal skin exposed the left cremaster muscle, which was then carefully dissected free of the associated fascia. The cremaster muscle was cut longitudinally with a cautery pen. The testicle and the epididymis were then separated from the underlying muscle and were moved into the abdominal cavity. The muscle was held flat on an optically clear viewing pedestal and was secured along the edges with 4-0 suture. The exposed tissue was superfused with 37° C.-warmed bicarbonate-buffered saline (pH 7.4). An upright microscope (Mikron; Carl Zeiss) was used to examine the cremasteric microcirculation and a video camera (XR/MEGA10-AM or XR/MEGA10 Panasonic) and DVD recorder were used to capture images. Three to five cremasteric venules (25 to 40 μm in diameter) were analysed during playback analysis. A leukocyte was considered to be adherent if it remained stationary for at least 30 seconds, and total leukocyte adhesion was quantified as the number of adherent cells within a 100-μm length of venule. Leukocyte emigration was defined as the number of cells in the extravascular space within the field of view adjacent to the observed venule.

[3] = system: MIP2-induced neutrophil emigration; assay: Intravital microscopy of exteriorized cremaster superfused with MIP2; assay type: in vivo, mice; settings: 0.5 μg, 1.5 hr pre-treatment; superfusion 60 min
Experimental: Intravital microscopy was performed on male mice, anaesthetized with an intraperitoneal injection of a 10 mg/kg xylazine (Bayer) and 200 mg/kg ketamine hydrochloride (Rogar/STB). The left jugular vein was cannulated to administer additional anaesthetic when necessary. An incision in the scrotal skin exposed the left cremaster muscle, which was then carefully dissected free of the associated fascia. The cremaster muscle was cut longitudinally with a cautery pen. The testicle and the epididymis were then separated from the underlying muscle and were moved into the abdominal cavity. The muscle was held flat on an optically clear viewing pedestal and was secured along the edges with 4-0 suture. The exposed tissue was superfused with 37° C.-warmed bicarbonate-buffered saline (pH 7.4). An upright microscope (Mikron; Carl Zeiss) was used to examine the cremasteric microcirculation and a video camera (XR/MEGA10-AM or XR/MEGA10 Panasonic) and DVD recorder were used to capture images. Three to five cremasteric venules (25 to 40 μm in diameter) were analysed during playback analysis. A leukocyte was considered to be adherent if it remained stationary for at least 30 seconds, and total leukocyte adhesion was quantified as the number of adherent cells within a 100-μm length of venule. […]

[4] = system: bone marrow-derived macrophages; assay: Internalization of FITC-FSL1/GML; assay type: cell-based, mice
Experimental: Bone marrow-derived macrophages were isolated from wild-type and TLR2−/− mice and cultured on glass coverslips. The cells were incubated on ice for 10 min in the presence of 10 μg/mL FITC-FSL1 or FITC-GML to allow ligands binding and then returned to 37° C. for 60 min. Cells were then fixed for 10 minutes in 4.5% paraformaldehyde and stained for the golgi marker Giantin (1:250, Abcam), and imaged using confocal microscopy.

Molecule | effect of antagonist pretreatment on LTA and GML inhibition of TNFα-induced neutrophil recruitment [2] | effect of antagonist pretreatment on LTA and GML inhibition of MIP2-induced neutrophil recruitment [3] | inhibitory properties toward LPS-induced neutrophil emigration [2] | neutrophil recruitment induced by the ligand itself [2] | further results
drotrecogin alfa | – | – | – | – | mortality [1]: about 25%
O=C(Nc1ccccc1)c1cc([N+](=O)[O-])ccc1Cl [GW9662] | abrogated the inhibitory effect of both LTA and GML | abrogated the inhibitory effect of both LTA and GML | – | – | –
FSL1 | – | – | – | – | internalization / localization of FITC-labelled ligand ([4]; in the absence of TLR2): substantially inhibited with regard to internalization; localization of internalized FITC-labelled ligand ([4]; wild-type macrophages, 60 min, Giantin stain): much smaller vesicles, which did not co-localize with Giantin
Pam3CSK4 | – | – | did not exhibit any inhibitory properties | pro-inflammatory; also recorded: causes significant neutrophil recruitment into the cremaster tissue | –
Pam2CSK4 | – | – | did not exhibit any inhibitory properties | pro-inflammatory | –
O=C(Nc1ccncc1)c1cc([N+](=O)[O-])ccc1Cl [T0070907] | abrogated the inhibitory effect of both LTA and GML | abrogated the inhibitory effect of both LTA and GML | – | – | –
